Experimental data from patent US20080075750A1, “METHODS FOR PRODUCING THREE-DIMENSIONAL TISSUE-ENGINEERED CARDIAC CONSTRUCTS AND USES REGARDING SAME” (The Nemours Foundation, priority 2001, published 2008).

Key:
[1] = test system: Primary NNRCCs (neonatal rat cardiac cells), 2D culture dishes and 3D constructs; assay: Spontaneous contractile (beat) frequency of cardiac cell cultures before and after exposure to adrenergic/cholinergic agents; type: cell-based; settings: for Propranolol responders: responding cultures of all cultures; for Postproprandolol beat frequency: three minutes after pharmacological dose, responders, 37° C.; for decrease in beat frequency post propranolol: versus baseline of responders
Experimental: Primary NNRCCs in SFHM form spontaneously and rhythmically contracting cultures within the first twenty hours after plating in monolayer cultures. To directly assess contractility and the modulation of contractile activity by […], the effects of propranolol, which is a beta-blocker on the frequency of spontaneous contraction in 2D and 3D preparation were evaluated. 3D cardiac cell cultures were prepared in transparent Teflon® culture bags that were slowly rotated to quiescently suspend the cells and HFN-coated polystyrene beads. Cultures were observed on a 37° C. microscope stage and the spontaneous contractile frequency of the constructs was determined. Samples were then exposed to a pharmacological dose of propranolol without disturbing the field of view on the microscope stage. Three minutes later, the contractile frequency was reassessed.
As expected, both culture types were spontaneously contractile. In standard (2D) preparations entire culture wells beat in unison. In the 3D constructs, entire aggregates of cells in physical contact beat in unison. […]

[2] = test system: bioreactor cultured neonatal rat cardiac cells on microcarriers (BMP 2 function); assay: Formation of tissue-like aggregates in bioreactor cardiac cultures with Noggin (BMP antagonist) in the media; type: cell-based
Experimental: 2 day old neonatal rat pups were halothane anesthetized and cardioectomitized. The isolated hearts were minced and subjected to about 16 hour digestion by about […] trypsin, followed by about […] collagenase II digestion and cell straining to completely separate individual cells. The cells were then counted on hemocytometer with trypan blue staining aid resuspended in modified serum-free cardiac media (SM3+) at a density of about 1×10^6 total cells/ml. Cells were then mixed with fibronectin-coated Nunclon plastic microcarriers at […] and infused into PTFE bags for bioreactor rotation, with the remainder plated onto fibronectin-coated six-well Nunclon plastic plates at a density of about 2×10^6 cells/well as a control population. Feeding was performed at about 24 hours post-inoculation to remove unattached cells, and about every 3 days thereafter. Samples were collected prior to culture start (Day 0) and at varying intervals thereafter. For the Noggin treatment protocol, about. 0.4 μg/ml Noggin (Pepro Tech, London, UK) in about 10 mM acetic acid was added to media just prior to inoculation and to media used for feeding, with control using untreated media.
Moreover, Noggin was used to assess the role of BMP2 in the formation of tissue-like aggregates in bioreactors. Noggin is a secreted factor which acts as an antagonist for members of the BMP family of proteins (i.e., in solution, Noggin will bind BMP 2 and prevent BMP 2 from binding to its receptor). Thus, adding an effective amount of Noggin to the culture media may suppress BMP 2 function. […] The control bioreactor cardiac cultures formed large tissue-like aggregates surrounding multiple microcarriers complete with substantial thick structure formation visible between the microcarriers.

CC(C)NCC(O)COc1cccc2ccccc12 (centres unmarked) [Propranolol, propranolol]
Propranolol responders ([1]; 2D/culture dishes): (19 of 25) | Postproprandolol beat frequency ([1]; 2D/culture dishes): 130.86 (±10.23) | decrease in beat frequency post propranolol ([1]; 2D/culture dishes): 30% decrease | Propranolol responders ([1]; 3D/HARVs): (6 of 12) | Postproprandolol beat frequency ([1]; 3D/HARVs): 34.59 (±3.842) | decrease in beat frequency post propranolol ([1]; 3D/HARVs): 34% decrease | effect on beat frequency ([1]; both 3D and 2D conformations): decrease in beat frequency in a subset of cultures

CN1[C@@H]2CC[C@H]1C[C@@H](OC(=O)C(CO)c1ccccc1)C2 (some centres unmarked) [atropine]
alteration of baseline contractile frequency ([1]; cholinergic antagonist): did not result in an alteration of baseline contractile frequency

B1: Noggin: secreted factor which acts as an antagonist for members of the BMP family of proteins (Pepro Tech) (protein, UniProt Q13253 28-232, looked up)
Noggin: QHYLHIRPAPSDNLPLVDLIEHPDPIFDPKEKDLNETLLRSLLGGHYDPGFMATSPPEDRPGGGGGAAGGAEDLAELDQLLRQRPSGAMPSEIKGLEFSEGLAQGKKQRLSKKLRRKLQMWLWSQTFCPVLYAWNDLGSRFWPRYVKVGSCFSKRSCSVPEGMVCKPSKSVHLTVLRWRCQRRGGQRCGWIPIQYPIISECKCSC
aggregate size (connected microcarrier supports) ([2]; Noggin treated bioreactor culture, 6 days post inoculation): 2-3 microcarrier supports | contractile activity / myocyte interaction ([2]; Noggin-treated cultures, about 8 hour post-inoculation): no disruption in myocyte interaction or contractile apparatus reformation | tissue-like aggregate formation ([2]; about 0.4 μg/ml Noggin in media, bioreactor culture): only small thin aggregates
